“And” between values parts separate entries of the source, which are not always exact repeats. Equal entries are not always repeated. Where two headings read alike, the source gives them in different places. One block for each compound: values may come before it.
Legend:
[1] = Reverse phase HPLC retention time comparison (lipophilicity); assay type: physicochemical; conditions: measure of lipophilicity
Description: A series of compounds were produced in accord with the method of Example 1 with various substitutions of 2' deoxycytidine at the N^4 position of the dialkylaminomethylene side chain.
Because of economic considerations 2'-deoxycytidine, was used as the parent nucleoside for comparison purposes in this study.

[2] = tested on: human immunodeficiency virus (HIV-1, strain LAV); assay: NCI in vitro anti-HIV drug screen, antiviral activity; assay type: cell-based; conditions: for activity against human immunodeficiency virus: HIV-1, strain LAV, NCI In-Vitro Testing Program
Experimental: (§1) The protocol used in NCI's Developmental Therapeutics Program AIDS antiviral drug screening program involves plating of susceptible human "host" cells with and without virus in microculture plates, adding various concentrations of test material, incubating the plates for seven days (during which time infected, non-drug treated control cells are largely or totally destroyed by the virus), and then determining the number of remaining viable cells using a calorimetric endpoint. The dose dependent antiviral activity and cytotoxicity were determined and plotted on a graph illustrated as FIG. 1.
(§2) Two parameters are extracted from the curves illustrated in FIG. 1: the EC50, representing the concentration of drug that results in a 50% reduction of the viral cytopathic effect; and the IC50, representing the concentration of drug resulting in 50% cytotoxicity (growth inhibition derived from the normal, uninfected cultures). An in-vitro therapeutic index (TI) may be calculated as the ratio (IC50 /EC50)if both values are obtained.

[3] = cited from earlier work
[4] = tested on: viral replication; conditions: background; cited from earlier work
[5] = Rate of hydrolysis in phosphate buffer by UV spectroscopy and HPLC; assay type: physicochemical; conditions: 10 mM K-phosphate buffer, pH 7.4, read-out: half-life (t1/2) of hydrolysis (converted)
Experimental: The rates of hydrolysis of the different derivatives appear to depend greatly on the structure of the substituent introduced at the exocyclic NH2 group. For example, the half-life (t1/2) of N^4 -dimethylaminomethylene […] (compound 3 in Table 1) is 5 hours at 37° in 10 mM K-phosphate buffer at pH 7.4, as determined by UV spectroscopy and HPLC analysis. Under the same conditions, N^4 -diisopropylamino-methylene-2'-deoxycytidine (compound 7 in Table 1) has a t1/2 =3 days. Thus, there is an order of magnitude difference in the rate of hydrolysis of these two side chains. The variations in the susceptibility to hydrolysis provide another parameter for the optimization of the pharmacokinetic profile.

[6] = tested on: HIV; assay: NCI in vitro anti-HIV drug screen, protection of CEM cells against HIV; assay type: cell-based; conditions: Human immunodeficiency virus 1, CCRF-CEM, 168 h; CEM cell line; read-out: concentration giving complete protection against HIV
Experimental: as §1, §2

[7] = tested on: viral p24 antigen; assay: Viral p24 antigen by enzyme-linked immunosorbent assay in CEM cells; assay type: cell-based, HIV; conditions: FIG. 2
[8] = NCI in vitro anti-HIV drug screen, cytotoxicity, five different cell lines; assay type: cell-based, human; conditions: human; all five different cell lines; IC50 could not be reached up to highest concentration employed; read-out: IC50 (50% cytotoxicity)
Experimental: as §1, §2

[9] = tested on: five different cell lines; assay: as above; assay type: cell-based, human; conditions: all five different cell lines, up to highest concentration employed
Experimental: as §1, §2

[10] = NCI in vitro anti-HIV drug screen, cytotoxicity, C3-44 cells; assay type: cell-based; conditions: human, C3-44, tests of 3-15-88 and 3-16-88, uninfected cultures, seven days, read-out: IC50 (cytotoxicity)
Experimental: as §1, §2

[11] = NCI in vitro anti-HIV drug screen, cytotoxicity, ATH8 cells; assay type: cell-based; conditions: human, ATH8, test of 9-08-87, uninfected cultures, seven days, read-out: IC50 (cytotoxicity)
Experimental: as §1, §2

[12] = NCI in vitro anti-HIV drug screen, cytotoxicity, MT-2 cells; assay type: cell-based; conditions: human, MT-2, tests of 1-29-88 and 3-25-88, uninfected cultures, seven days, read-out: IC50 (cytotoxicity)
Experimental: as §1, §2

[13] = NCI in vitro anti-HIV drug screen, cytotoxicity, CEM cells; assay type: cell-based, human; conditions: human, cem cells, CEM, read-out: IC50 (cytotoxicity)
Experimental: as §1, §2

[14] = tested on: CEM; assay: as above; assay type: cell-based, human; conditions: CEM cell line, 8 micromolar
Experimental: as §1, §2

[15] = NCI in vitro anti-HIV drug screen, cytotoxicity, LDV-7 cells; assay type: cell-based; conditions: human, LDV-7, tests of 3-15-88, 3-16-88, 3-25-88, uninfected cultures, seven days, read-out: IC50 (cytotoxicity)
Experimental: as §1, §2

Structure (SMILES): Nc1ccn([C@H]2C[C@H](O)[C@@H](CO)O2)c(=O)n1 [Compound 1, 2'-Deoxycytidine, reference compound]
- RETENTION TIME [1]: 2.13 min

Structure (SMILES): CN(C)C=Nc1ccn([C@H]2CC[C@@H](CO)O2)c(=O)n1 [DAM-ddC, N^4-dimethylaminomethylene-2', 3'-dideoxycytidine]
- activity against human immunodeficiency virus [2]: Significant activity
- antiviral activity ([2]; anti-HIV drug screen, FIG. 3): significant antiviral activity

Structure (SMILES): Nc1ccn([C@H]2CC[C@@H](CO)O2)c(=O)n1 [ddC, 2', 3'-dideoxycytidine]
- dose limiting toxicity ([3]; Phase I and II trials): peripheral neuropathy
- bone marrow toxicity ([3]; human, in vivo): much less bone marrow suppression
- inhibition of viral replication [4]: effective in inhibiting viral replication

- RETENTION TIME [1]: 6.44 min
Structure (SMILES): CCN(C=Nc1ccn([C@H]2C[C@H](O)[C@@H](CO)O2)c(=O)n1)CC [Compound 5, N^4 -Diethylaminomethylene-2'-deoxycytidine]

Structure (SMILES): Cc1cn([C@H]2C[C@H](N=[N+]=[N-])[C@@H](CO)O2)c(=O)[nH]c1=O [AZT]
- half-life ([3]; human, in vivo): short half-life
- therapeutic benefit ([3]; patients with AIDS or AIDS related complex (ARC)): considerable therapeutic benefit
- bone marrow toxicity ([3]; patients, ddC compared to AZT, Phase I and II trials): severe bone marrow toxicity

Structure (SMILES): Nc1ncnc2c1ncn2[C@H]1CC[C@@H](CO)O1 [2', 3'-dideoxyadenosine]
- inhibition of viral replication [4]: effective in inhibiting viral replication

- half-life ([5]; 37°): 5 h
- RETENTION TIME [1]: 3.26 min
Structure (SMILES): CN(C)C=Nc1ccn([C@H]2C[C@H](O)[C@@H](CO)O2)c(=O)n1 [Compound 3, N^4-dimethylaminomethylene-2'-deoxycytidine]

- half-life ([5]; same conditions: 37°): 72 h
Structure (SMILES): CC(C)N(C=Nc1ccn([C@H]2C[C@H](O)[C@@H](CO)O2)c(=O)n1)C(C)C [Compound 7, N^4 -Diisopropylamino-methylene-2'-deoxycytidine]

- RETENTION TIME [1]: 21.81 min
Structure (SMILES): CC1CCCC(C)N1C=Nc1ccn([C@H]2C[C@H](O)[C@@H](CO)O2)c(=O)n1 (some centres unmarked) [Compound 8, N^4-2,6-Dimethylpiperidino-methylene-2'-deoxycytidine]

- RETENTION TIME [1]: 7.79 min
Structure (SMILES): O=c1nc(N=CN2CCCCC2)ccn1[C@H]1C[C@H](O)[C@@H](CO)O1 [Compound 6, N^4 -Piperidinomethylene-2' deoxycytidine]

- RETENTION TIME [1]: 3.07 min
Structure (SMILES): O=c1nc(N=CN2CCOCC2)ccn1[C@H]1C[C@H](O)[C@@H](CO)O1 [Compound 2, N^4 -Morpholinomethylene-2'-deoxycytidine]

Structure (SMILES): CN(C)C=Nc1ccn([C@H]2C[C@H](F)[C@@H](CO)O2)c(=O)n1 [DDFC, N^4-dimethylaminomethylene-2', 3'-dideoxy-3'-fluorocytidine]
- antiviral activity in several cell lines ([2]; FIG. 1, several cell lines): significant antiviral activity
- activity against human immunodeficiency virus [2]: Significant activity
- EC100 [6]: 8 µM
- correlation of protection against cytopathic effect of HIV with p24 antigen [7]: correlated with the decrease in the presence of viral p24 antigen
- CC50 at 168 h [8]: > 200 µM
- cytotoxicity observed [9]: uniformly very little cytotoxicity
- CC50 at 168 h [10]: > 200 µM and > 56 µg/mL
- CC50 at 168 h [11]: > 200 µM and > 56 µg/mL
- CC50 at 168 h [12]: > 200 µM and > 56 µg/mL
- CC50 at 168 h ([13]; test of 1-23-88, highest concentration tested): > 200 nM and > 0.055 µg/mL
- CC50 at 168 h ([13]; tests of 1-13-88, 3-15-88, 3-25-88, 3-16-88, uninfected cultures, seven days): > 200 µM and > 56 µg/mL
- cytotoxicity at the concentration of complete protection [14]: without any cytotoxicity
- CC50 at 168 h [15]: > 200 µM and > 56 µg/mL

- RETENTION TIME [1]: 5.16 min
Structure (SMILES): O=c1nc(N=CN2CCCC2)ccn1[C@H]1C[C@H](O)[C@@H](CO)O1 [Compound 4, N^4 -Pyrrolidinomethylene-2'-deoxycytidine]

- RETENTION TIME [1]: 125 min
Structure (SMILES): CCCCN(C=Nc1ccn([C@H]2C[C@H](O)[C@@H](CO)O2)c(=O)n1)CCCC [Compound 9, N^4 -Di-n-butylamino-methylene-2'-dioxycytidine]
